Laboratory results taken from US6737383B1, “Herbicidal oxadiazolidines” (priority 1999, dated 2004).

Columns and labels:
green foxtail = assay: Test E green foxtail; type: in vivo, Setaria viridis; details: Postemergence; for Plant response rating, Green foxtail: 0 to 100 scale
In short: (§1)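 For postemergence, application to 1- to 4-leaf plants growing in a 60:40 sandy loam–potting mix substrate. Formulation: non-phytotoxic solvent mixture plus surfactant. Untreated controls served as the reference for the visual rating after ~21–28 days.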

large crabgrass = assay: Test D large crabgrass; type: in vivo, Digitaria sanguinalis; details: Postemergence, 0 to 100 scale
galium [1] = assay: Test E galium; type: in vivo, Galium aparine; details: Postemergence; for Plant response rating, Galium: 0 to 100 scale
In short: as §1

downy brome = assay: Test E downy brome; type: in vivo, Bromus tectorum; details: Postemergence; for Plant response rating, Downy brome: 0 to 100 scale
In short: as §1

galium [2] = assay: Test E galium; type: in vivo, Galium aparine; details: Preemergence
windgrass = assay: Test E windgrass; type: in vivo, Apera spica-venti; details: Preemergence
lambsquarters [3] = assay: Test E lambsquarters; type: in vivo, Chenopodium album; details: Preemergence
Alexandergrass = assay: Test D Alexandergrass; type: in vivo, Brachiaria plantaginea; details: Postemergence
Italian ryegrass = assay: Test E Italian ryegrass; type: in vivo, Lolium multiflorum; details: Postemergence; for Plant response rating, I. Ryegrass: 0 to 100 scale
Experimental: (§2) Compounds evaluated in this test were formulated in a non-phytotoxic solvent mixture which included a surfactant and applied to plants that were in the 1- to 4-leaf stage (postemergence application). A mixture of sandy loam soil and greenhouse potting mix in a 60:40 ratio was used for the postemergence test.
(§3) Plantings of these crops and weed species were adjusted to produce plants of appropriate size for the postemergence test. All plant species were grown using normal greenhouse practices. Crop and weed species include annual bluegrass (Poa annua), blackgrass (Alopecurus myosuroides), black nightshade (Solanum nigra), chickweed (Stellaria media), common poppy (Papaver rhoeas), deadnettle (Lamium amplexicaule), downy brome (Bromus tectorum), field violet (Viola arvensis), galium (Galium aparine), green foxtail (Setaria viridis), Italian ryegrass (Lolium multiflorum), jointed goatgrass (Aegilops cylindrica), kochia (Kochia scoparia), lambsquarters (Chenopodium album), littleseed canarygrass (Phalaris minor), rape (Brassica napus), redroot pigweed (Amaranthus retroflexus), Russian thistle (Salsola kali), scentless chamomile (Matricaria inodora), spring barley (Hordeum vulgare), sugar beet (Beta vulgaris), sunflower (Helianthus annuus), ivyleaf speedwell (Veronica hederaefolia), spring wheat (Triticum aestivum), winter wheat (Triticum aestivum), wild buckwheat (Polygonum convolvulus), wild mustard (Sinapis arvensis), wild oat (Avena fatua), windgrass (Apera spica-venti) and winter barley (Hordeum vulgare).
(§4) Treated plants and untreated controls were maintained in a greenhouse for approximately 21 to 28 days, after which all treated plants were compared to untreated controls and visually evaluated. […] A dash response (-) means no test result.

kochia = assay: Test E kochia; type: in vivo, Kochia scoparia; details: Postemergence; for Plant response rating, Kochia: 0 to 100 scale
Experimental: as §2, §3, §4

sugar beet = assay: Test E sugar beet; type: in vivo, Beta vulgaris; details: Postemergence; for Plant response rating, Sugar beet: 0 to 100 scale
Experimental: as §2, §3, §4

rape = assay: Test E rape; type: in vivo, Brassica napus; details: Postemergence; for Plant response rating, Rape: 0 to 100 scale
Experimental: […] A mixture of sandy loam soil and greenhouse potting mix in a 60:40 ratio was used for the postemergence test.
as §3, §4

redroot pigweed = assay: Test E redroot pigweed; type: in vivo, Amaranthus retroflexus; details: Postemergence; for Plant response rating, Redroot pigweed: 0 to 100 scale
Experimental: as §2, §3, §4

wild mustard = assay: Test E wild mustard; type: in vivo, Sinapis arvensis; details: Postemergence; for Plant response rating, Wild mustard: 0 to 100 scale
In short: as §1

blackgrass = assay: Test E blackgrass; type: in vivo, Alopecurus myosuroides; details: Postemergence; for Plant response rating, Blackgrass: 0 to 100 scale
Experimental: as §2, §3, §4

common poppy = assay: Test E common poppy; type: in vivo, Papaver rhoeas; details: Postemergence
Experimental: as §2, §3, §4

lambsquarters [4] = assay: Test E lambsquarters; type: in vivo, Chenopodium album; details: Postemergence; for Plant response rating Lambsquarters: 0 to 100 scale
In short: as §1

littleseed canarygrass = assay: Test E littleseed canarygrass; type: in vivo, Phalaris minor; details: Preemergence
dallisgrass = assay: Test D dallisgrass; type: in vivo, Paspalum dilatatum; details: Postemergence, 0 to 100 scale
itchgrass = assay: Test D itchgrass; type: in vivo, Rottboellia exaltata; details: Postemergence, 0 to 100 scale
wild buckwheat = assay: Test E wild buckwheat; type: in vivo, Polygonum convolvulus; details: Preemergence
black nightshade [5] = assay: Test E black nightshade; type: in vivo, Solanum nigra; details: Preemergence
black nightshade [6] = assay: Test E black nightshade; type: in vivo, Solanum nigra; details: Postemergence; for Plant response rating, Blk nightshade: 0 to 100 scale
Experimental: as §2, §3, §4

[7] = Rate 500 g/ha, 0 no effect, 100 complete control
[8] = Rate 250 g/ha, 0 to 100 scale where 0 is no effect and 100 is complete control
[9] = Rate 64 g/ha, 0 no injury, 100 complete control
[10] = Rate 125 g/ha, 0 no injury, 100 complete control
[11] = Rate 125 g/ha, 0 to 100 scale (0 no effect, 100 complete control)
[12] = Rate 500 g/ha, 0 to 100 scale where 0 is no effect and 100 is complete control
[13] = Rate 64 g/ha, 0 to 100 scale, 0 no injury, 100 complete control
[14] = Rate 125 g/ha, 0 to 100 scale, 0 no injury, 100 complete control
[15] = Rate 500 g/ha, 0 to 100 scale (0 no injury, 100 complete control)

SMILES: C=CCn1c(=O)on(C(=O)N(c2ccc(F)cc2)C(C)C)c1=O [Compound 146]
- Plant response rating, Green foxtail (green foxtail; Rate 62 g/ha): 70
- Plant response rating, Green foxtail (green foxtail; Rate 125 g/ha): 20
- Plant response rating, Green foxtail (green foxtail; [7]): 80
- Green foxtail plant response rating (green foxtail; [8]): 70
- Plant response rating Large crabgrass (large crabgrass; [9]): 20
- Plant response rating Large crabgrass (large crabgrass; [10]): 20
- Plant response rating Large crabgrass (large crabgrass; Rate 250 g/ha): 50
- Plant response rating Large crabgrass (large crabgrass; Rate 500 g/ha): 65
- Plant response rating, Galium (galium [1]; Rate 62 g/ha): 50
- Plant response rating, Galium (galium [1]; Rate 125 g/ha): 0
- Plant response rating, Galium (galium [1]; [7]): 60
- Galium plant response rating (galium [1]; [8]): 15
- Plant response rating, Downy brome (downy brome; Rate 62 g/ha): 55
- Plant response rating, Downy brome (downy brome; Rate 125 g/ha): 10
- Plant response rating, Downy brome (downy brome; [7]): 5
- Downy brome plant response rating (downy brome; [8]): 0
- Plant response rating, Galium (galium [2]; [11]): 40
- Galium plant response rating (0 to 100 scale) (galium [2]; Rate 250 g/ha): 50
- Plant response rating, Galium (galium [2]; [12]): 95
- Plant response rating, Windgrass (windgrass; [11]): 100
- Windgrass plant response rating (0 to 100 scale) (windgrass; Rate 250 g/ha): 100
- Plant response rating, Windgrass (windgrass; [12]): 100
- Plant response rating Lambsquarters (lambsquarters [3]; [11]): 100
- Lambsquarters plant response rating (0 to 100 scale) (lambsquarters [3]; Rate 250 g/ha): 100
- Plant response rating Lambsquarters (lambsquarters [3]; [12]): 100
- Plant response rating, Alexandergrass (Alexandergrass; [13]): 10
- Plant response rating, Alexandergrass (Alexandergrass; [14]): 20
- Plant response rating, Alexandergrass (Alexandergrass; Rate 250 g/ha, 0 to 100 scale): 40
- Plant response rating, Alexandergrass (Alexandergrass; [15]): 65
- Plant response rating, Alexandergrass (Alexandergrass; Rate 500 g/ha, 0 to 100 scale): 65
- Plant response rating, I. Ryegrass (Italian ryegrass; Rate 62 g/ha): 50
- Plant response rating, I. Ryegrass (Italian ryegrass; Rate 125 g/ha): 10
- Plant response rating, I. Ryegrass (Italian ryegrass; [7]): 50
- I. Ryegrass plant response rating (Italian ryegrass; [8]): 10
- Plant response rating, Kochia (kochia; Rate 62 g/ha): 30
- Plant response rating, Kochia (kochia; Rate 125 g/ha): 10
- Plant response rating, Kochia (kochia; [7]): 40
- Kochia plant response rating (kochia; [8]): 10
- Plant response rating, Sugar beet (sugar beet; Rate 62 g/ha): 0
- Plant response rating, Sugar beet (sugar beet; Rate 125 g/ha): 20
- Plant response rating, Sugar beet (sugar beet; [7]): 40
- Sugar beet plant response rating (sugar beet; [8]): 30
- Plant response rating, Rape (rape; Rate 62 g/ha): 60
- Plant response rating, Rape (rape; Rate 125 g/ha): 40
- Plant response rating, Rape (rape; [7]): 60
- Rape plant response rating (rape; [8]): 50
- Plant response rating, Redroot pigweed (redroot pigweed; Rate 62 g/ha): 30
- Plant response rating, Redroot pigweed (redroot pigweed; Rate 125 g/ha): 20
- Plant response rating, Redroot pigweed (redroot pigweed; [7]): 50
- Redroot pigweed plant response rating (redroot pigweed; [8]): 10
- Plant response rating, Wild mustard (wild mustard; Rate 62 g/ha): 60
- Plant response rating, Wild mustard (wild mustard; Rate 125 g/ha): 50
- Plant response rating, Wild mustard (wild mustard; [7]): 60
- Wild mustard plant response rating (wild mustard; [8]): 40
- Plant response rating, Blackgrass (blackgrass; Rate 62 g/ha): 70
- Plant response rating, Blackgrass (blackgrass; Rate 125 g/ha): 25
- Plant response rating, Blackgrass (blackgrass; [7]): 40
- Blackgrass plant response rating (blackgrass; [8]): 15
- Plant response rating, Common poppy (common poppy; Rate 62 g/ha, 0 to 100 scale): 60
- Plant response rating, Comnion poppy (common poppy; Rate 125 g/ha, 0 to 100 scale): 10
- Plant response rating, Common poppy (common poppy; Rate 500 g/ha, 0 to 100 scale, 0 no effect, 100 complete control): 10
- Common poppy plant response rating (common poppy; [8]): 0
- Plant response rating Lambsquarters (lambsquarters [4]; Rate 62 g/ha): 50
- Plant response rating Lambsquarters (lambsquarters [4]; Rate 125 g/ha): 20
- Plant response rating Lambsquarters (lambsquarters [4]; [7]): 50
- Lambsquarters plant response rating (lambsquarters [4]; [8]): 10
- Plant response rating, LS canarygrass (littleseed canarygrass; [11]): 40
- LS canarygrass plant response rating (0 to 100 scale) (littleseed canarygrass; Rate 250 g/ha): 75
- Plant response rating, LS canarygrass (littleseed canarygrass; [12]): 85
- Plant response rating, Dallisgrass (dallisgrass; [10]): 30
- Plant response rating, Dallisgrass (dallisgrass; Rate 250 g/ha): 60
- Plant response rating, Dallisgrass (dallisgrass; Rate 500 g/ha): 80
- Plant response rating, Itchgrass (itchgrass; [9]): 30
- Plant response rating, Itchgrass (itchgrass; [10]): 30
- Plant response rating, Itchgrass (itchgrass; Rate 250 g/ha): 50
- Plant response rating, Itchgrass (itchgrass; Rate 500 g/ha): 65
- Plant response rating, Wild buckwheat (wild buckwheat; [11]): 70
- Wild buckwheat plant response rating (0 to 100 scale) (wild buckwheat; Rate 250 g/ha): 85
- Plant response rating, Wild buckwheat (wild buckwheat; [12]): 100
- Plant response rating, Blk nightshade (black nightshade [5]; [11]): 85
- Blk nightshade plant response rating (0 to 100 scale) (black nightshade [5]; Rate 250 g/ha): 10
- Plant response rating, Blk nightshade (black nightshade [5]; [12]): 100
- Plant response rating, Blk nightshade (black nightshade [6]; Rate 62 g/ha): 50
- Plant response rating, Blk nightshade (black nightshade [6]; Rate 125 g/ha): 50
- Plant response rating, Blk nightshade (black nightshade [6]; [7]): 70
- Blk nightshade plant response rating (black nightshade [6]; [8]): 40

SMILES: CC(C)N(C(=O)n1oc(=O)n(C2CC2)c1=O)c1ccc(F)cc1F [Compound 299]
- Plant response rating Large crabgrass (large crabgrass; [9]): 100
- Plant response rating Large crabgrass (large crabgrass; [10]): 100
- Plant response rating Large crabgrass (large crabgrass; Rate 250 g/ha): 100
- Plant response rating Large crabgrass (large crabgrass; Rate 500 g/ha): 100
- Plant response rating, Alexandergrass (Alexandergrass; [13]): 90
- Plant response rating, Alexandergrass (Alexandergrass; [14]): 100
- Plant response rating, Alexandergrass (Alexandergrass; Rate 250 g/ha, 0 to 100 scale): 100
- Plant response rating, Alexandergrass (Alexandergrass; [15]): 100
- Plant response rating, Alexandergrass (Alexandergrass; Rate 500 g/ha, 0 to 100 scale): 100
- Plant response rating, Dallisgrass (dallisgrass; [9]): 100
- Plant response rating, Dallisgrass (dallisgrass; [10]): 100
- Plant response rating, Dallisgrass (dallisgrass; Rate 250 g/ha): 100
- Plant response rating, Dallisgrass (dallisgrass; Rate 500 g/ha): 100
- Plant response rating, Itchgrass (itchgrass; [9]): 0
- Plant response rating, Itchgrass (itchgrass; [10]): 10
- Plant response rating, Itchgrass (itchgrass; Rate 250 g/ha): 50
- Plant response rating, Itchgrass (itchgrass; Rate 500 g/ha): 100
